Test results as given in patent US11453652B2, “Di-macrocycles” (LUMIPHORE, INC., priority 2013, dated 2022).
{AmC3} = aminopropyl group

Test: Gel electrophoresis mobility shift assay of metal cation complexation
Type: binding
Conditions: 20% polyacrylamide gel, 8M urea; incubated 55° C. 15 minutes, HEPES pH 7.5; compared with no metal cation
Description: For use in certain applications, such as acting as a bifunctional chelating agent to attach a radioisotope to a site-directing molecule, it is necessary that the chelator be able to coordinate to the metal ion of interest in a kinetically facile and thermodynamically stable manner. […] In this experiment, a conjugate of 12 with a small (18 base length) DNA oligomer, 15 was treated with a solution containing a metal cation. The electrophoretic mobility of the conjugate on a polyacrylamide gel was then compared with that of the conjugate which was not exposed to the solution of metal cation. […] The gel electrophoretic mobility of the DNA oligomer 14 that was not conjugated to 12, present in the solution of 15, was also compared with and without exposure to the metal cation solution.
C=control, no metal cations. Y, Eu, Tb, Zr, Th=yttrium(III), europium(III), terbium(III), zirconium(IV), and thorium(IV), respectively. Arrow indicates luminescent band observed under hand held ultraviolet lamp.
In particular, a solution of DNA oligomer (3 μL, 33 μM, all concentrations final) was mixed with a solution of metal cation (2 μL, 625 μM) or an equal volume of water, additional water (2.5 μL) and a buffer solution (2.5 μL, 50 mM HEPES, pH 7.5). […]

Substance	electrophoretic mobility following treatment with the metal cation solution
Conjugate 15: conjugate of di-macrocycle 12 with 18-base DNA oligonucleotide 14 (DNA AAGGTCATCCATGACAAC; DNA, backbone and methylation of C not given here; di-macrocycle 12 conjugated)	migrates more slowly
unmodified oligonucleotide: DNA 18-base oligonucleotide 5′-AAGGTCATCCATGACAAC-3′ with 5′-aminopropyl group, not conjugated to 12 (DNA, 5' {AmC3}, backbone and methylation of C not given here)	unaffected
